Source: US12637478B2, “Compound, preparation method thereof, and antibiotic composition comprising same” (priority 2020, dated 2026)
≈ marks a conversion by molar mass, not a printed value. Where two headings read alike, the source gives them in different places.

Key:
S. aureus^MS [1] = assay: MIC by broth microdilution (aerobic pathogens), test strain 1; type: cell-based; conditions: Staphylococcus aureus
How it was run: (§1)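 Broth microdilution per CLSI M7-A5 standards was used. MIC was taken as the lowest antibiotic concentration inhibiting bacterial growth by 90% relative to the untreated growth control.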

S. aureus^MS [2] = assay: MIC by broth microdilution (aerobic pathogens), test strain 2; type: cell-based; conditions: Staphylococcus aureus
How it was run: as §1

S. aureus^MR = assay: MIC by broth microdilution (aerobic pathogens), test strain 3; type: cell-based, Methicillin resistant Staphylococcus aureus; conditions: Staphylococcus aureus
Experimental: The antibacterial activity of the compounds of Examples 1 to 48 of the present invention against aerobic pathogens were evaluated by measuring the minimum concentration of the antibiotic capable of inhibiting bacterial growth by 90% compared to the growth of the non-drug treated control group. MIC was measured by the broth microdilution method based on CLSI standards [Reference: Clinical and Laboratory Standards Institute Document. (2000) Methods for Dilution Antimicrobial Susceptibility Test for Bacteria that Grow Aerobically-Fifth Edition: M7-A5. CLSI, Villanova, PA].
All 13 strains such as methicillin susceptible Staphylococcus aureus (MSSA), methicillin resistant Staphylococcus aureus (MRSA), Vancomycin resistant Staphylococcus aureus (VRSA), Staphylococcus epidermidis, methicillin resistant Staphylococcus epidermidis, Enterococcus faecalis, Vancomycin resistant Enterococcus faecalis, Enterococcus faecium, Vancomycin resistant Enterococcus faecium were used.

S. aureus^VR = assay: MIC by broth microdilution (aerobic pathogens), test strain 4; type: cell-based, Vancomycin resistant Staphylococcus aureus; conditions: Staphylococcus aureus
How it was run: as §1

S. epidermis = assay: MIC by broth microdilution (aerobic pathogens), test strain 5; type: cell-based; conditions: Staphylococcus epidermidis
How it was run: as §1

S. epidermis^MR = assay: MIC by broth microdilution (aerobic pathogens), test strain 6; type: cell-based, Methicillin resistant Staphylococcus epidermidis; conditions: Staphylococcus epidermidis
How it was run: as §1

E. faecalis = assay: MIC by broth microdilution (aerobic pathogens), test strain 7; type: cell-based; conditions: Enterococcus faecalis
How it was run: as §1

E. faecalis^VanA = assay: MIC by broth microdilution (aerobic pathogens), test strain 8; type: cell-based, Vancomycin resistant Enterococcus faecalis; conditions: Enterococcus faecalis
How it was run: as §1

E. faecalis^LinR = assay: MIC by broth microdilution (aerobic pathogens), test strain 9; type: cell-based, Linezolid resistant Enterococcus faecalis; conditions: Enterococcus faecalis
How it was run: as §1

E. faecium = assay: MIC by broth microdilution (aerobic pathogens), test strain 10; type: cell-based; conditions: Enterococcus faecium
How it was run: as §1

E. faecium^LinR = assay: MIC by broth microdilution (aerobic pathogens), test strain 12; type: cell-based, Linezolid resistant Enterococcus faecium; conditions: Enterococcus faecium
How it was run: as §1

C. difficile 9689 = assay: MIC by agar dilution against Clostridioides difficile, test strain 13; type: cell-based
C. difficile 152 = assay: MIC by agar dilution against Clostridioides difficile, test strain 14; type: cell-based
C. difficile 159 = assay: MIC by agar dilution against Clostridioides difficile, test strain 15; type: cell-based
C. difficile 173 = assay: MIC by agar dilution against Clostridioides difficile, test strain 17; type: cell-based
C. difficile 174 = assay: MIC by agar dilution against Clostridioides difficile, test strain 18; type: cell-based
C. difficile 181 = assay: MIC by agar dilution against Clostridioides difficile, test strain 19; type: cell-based
M. avium = assay: MIC by resazurin (REMA) assay against Mycobacterium, test strain 21; type: cell-based
Experimental: (§2) In order to test the antibacterial activity, the medium of Mycobacterium cultured to late log phase was diluted so as to be 4.0×10^5 cells/well in Middlebrook 7H10 agar medium (Difco) supplemented with 10% oleic acid, albumin, dextrose, catalase (OADC, Becton Dickinson) and 0.05% Tween 80 (Sigma Aldrich) and was dispensed into a 96-well plate. The compounds were treated so that DMSO was 1%, and after 3 days, a 0.025% resazurin (REMA) solution was dispensed, and the growth of the bacteria was confirmed after culturing. The MIC value was measured for the antibacterial activity through resazurin (excitation 530 nm, emission 590 nm).

M. intracelluare = assay: MIC by resazurin (REMA) assay against Mycobacterium, test strain 22; type: cell-based; conditions: Mycobacterium intracellulare
Experimental: as §2

M. abscessus = assay: MIC by resazurin (REMA) assay against Mycobacterium, test strain 23; type: cell-based; conditions: Mycobacteroides abscessus
Experimental: as §2

E. faecium^VRE = assay: MIC by broth microdilution (aerobic pathogens), test strain 11; type: cell-based, Vancomycin resistant Enterococcus faecium; conditions: Enterococcus faecium; test strain 11, E. faecium^VRE (vancomycin resistant); read-out: MIC
How it was run: as §1

C. difficile 161 = assay: MIC by agar dilution against Clostridioides difficile, test strain 16; type: cell-based; conditions: test strain 16, C. difficile 161, anaerobic, agar dilution, read-out: MIC
[3] = test strain 1, S. aureus^MS, read-out: MIC
[4] = test strain 2, S. aureus^MS, read-out: MIC
[5] = test strain 5, S. epidermis, read-out: MIC
[6] = test strain 7, E. faecalis, read-out: MIC
[7] = test strain 10, E. faecium, read-out: MIC
[8] = test strain 12, E. faecium^LinR (linezolid resistant), read-out: MIC
[9] = test strain 13, C. difficile 9689, anaerobic, agar dilution, read-out: MIC
[10] = test strain 14, C. difficile 152, anaerobic, agar dilution, read-out: MIC
[11] = test strain 17, C. difficile 173, anaerobic, agar dilution, read-out: MIC
[12] = test strain 18, C. difficile 174, anaerobic, agar dilution, read-out: MIC
[13] = test strain 21, M. avium, resazurin, read-out: MIC
[14] = test strain 22, M. intracelluare, resazurin, read-out: MIC
[15] = test strain 23, M. abscessus, resazurin, read-out: MIC
[16] = test strain 6, S. epidermis^MR (methicillin resistant), read-out: MIC
[17] = test strain 9, E. faecalis^LinR (linezolid resistant), read-out: MIC

Row | Compound | MIC (S. epidermis^MR) | MIC (E. faecalis^LinR) | MIC (S. aureus^MS [1]; [3]) | MIC (S. aureus^MS [2]; [4]) | MIC (S. epidermis; [5]) | MIC (E. faecalis; [6]) | MIC (E. faecium; [7]) | MIC (E. faecium^LinR; [8]) | MIC (C. difficile 9689; [9]) | MIC (C. difficile 152; [10]) | MIC (C. difficile 161) | MIC (C. difficile 173; [11]) | MIC (C. difficile 174; [12]) | MIC (M. avium; [13]) | MIC (M. intracelluare; [14]) | MIC (M. abscessus; [15]) | MIC (S. epidermis^MR; [16]) | MIC (E. faecalis^LinR; [17]) | further results
1 | C/C=C1\NC(=O)[C@H]([C@@H](C)O)NC(=O)c2csc(n2)-c2ccc(-c3nc(-c4nc(C(=O)NC5(C(=O)NCCN6C(=O)CNC6=O)CC5)cs4)cs3)nc2-c2csc(n2)[C@H]([C@@H](C)O)NC(=O)c2csc(n2)[C@H](C(C)C)NC(=O)c2csc1n2 [Compound 5] | 0.5 µg/mL (≈ 0.412 µM) | 0.5 µg/mL (≈ 0.412 µM) |  |  |  |  |  |  |  |  |  |  |  |  |  |  |  |  | MIC (S. aureus^MS [1]): 0.25 µg/mL (≈ 0.206 µM); MIC (S. aureus^MS [2]): 0.25 µg/mL (≈ 0.206 µM); MIC (S. aureus^MR): 1 µg/mL (≈ 0.825 µM); MIC (S. aureus^VR): 1 µg/mL (≈ 0.825 µM); MIC (S. epidermis): 0.5 µg/mL (≈ 0.412 µM); MIC (E. faecalis): 0.25 µg/mL (≈ 0.206 µM); MIC (E. faecalis^VanA): 0.5 µg/mL (≈ 0.412 µM); MIC (E. faecium): 1 µg/mL (≈ 0.825 µM); MIC (E. faecium^LinR): 0.5 µg/mL (≈ 0.412 µM); MIC (C. difficile 9689; 9689): 1 µg/mL (≈ 0.825 µM); MIC (C. difficile 152; 152): 0.5 µg/mL (≈ 0.412 µM); MIC (C. difficile 159; 159): 1 µg/mL (≈ 0.825 µM); MIC (C. difficile 173; 173): 1 µg/mL (≈ 0.825 µM); MIC (C. difficile 174; 174): 0.25 µg/mL (≈ 0.206 µM); MIC (C. difficile 181; 181): 0.125 µg/mL (≈ 0.103 µM); MIC (M. avium): 0.043 µg/mL (≈ 0.0355 µM); MIC (M. intracelluare): 0.155 µg/mL (≈ 0.128 µM); MIC (M. abscessus): 0.504 µg/mL (≈ 0.416 µM)
2 | C/C=C1\NC(=O)[C@H]([C@@H](C)O)NC(=O)c2csc(n2)-c2ccc(-c3nc(-c4nc(C(=O)NC5(C(=O)NCCCN6CCOCC6)CC5)cs4)cs3)nc2-c2csc(n2)[C@H]([C@@H](C)O)NC(=O)c2csc(n2)[C@H](C(C)C)NC(=O)c2csc1n2 [Compound 7] | 0.125 µg/mL (≈ 0.103 µM) | 0.125 µg/mL (≈ 0.103 µM) | 0.25 µg/mL (≈ 0.206 µM) | 0.25 µg/mL (≈ 0.206 µM) | 0.0625 µg/mL (≈ 0.0515 µM) | 0.25 µg/mL (≈ 0.206 µM) | 0.25 µg/mL (≈ 0.206 µM) | 0.5 µg/mL (≈ 0.412 µM) | 0.25 µg/mL (≈ 0.206 µM) | 0.06 µg/mL (≈ 0.0494 µM) | 0.5 µg/mL (≈ 0.412 µM) | 0.06 µg/mL (≈ 0.0494 µM) | 0.06 µg/mL (≈ 0.0494 µM) | 0.083 µg/mL (≈ 0.0684 µM) | 0.107 µg/mL (≈ 0.0882 µM) | 0.322 µg/mL (≈ 0.265 µM) |  |  | MIC (S. aureus^MR; test strain 3, S. aureus^MR (methicillin resistant), read-out: MIC): 0.5 µg/mL (≈ 0.412 µM); MIC (S. aureus^VR; test strain 4, S. aureus^VR (vancomycin resistant), read-out: MIC): 1 µg/mL (≈ 0.824 µM); MIC (E. faecalis^VanA; test strain 8, E. faecalis^VanA (vancomycin resistant), read-out: MIC): 0.25 µg/mL (≈ 0.206 µM); MIC (E. faecium^VRE): 1 µg/mL (≈ 0.824 µM); MIC (C. difficile 159; test strain 15, C. difficile 159, anaerobic, agar dilution, read-out: MIC): 0.25 µg/mL (≈ 0.206 µM); MIC (C. difficile 181; test strain 19, C. difficile 181, anaerobic, agar dilution, read-out: MIC): 0.25 µg/mL (≈ 0.206 µM)
3 | C/C=C1\NC(=O)[C@H]([C@@H](C)O)NC(=O)c2csc(n2)-c2ccc(-c3nc(-c4nc(C(=O)NC5(C(=O)NCCCN6CCSCC6)CC5)cs4)cs3)nc2-c2csc(n2)[C@H]([C@@H](C)O)NC(=O)c2csc(n2)[C@H](C(C)C)NC(=O)c2csc1n2 [Compound 18] |  |  | 0.25 µg/mL (≈ 0.203 µM) | 1 µg/mL (≈ 0.813 µM) | 0.5 µg/mL (≈ 0.407 µM) | 1 µg/mL (≈ 0.813 µM) | 1 µg/mL (≈ 0.813 µM) |  | 0.5 µg/mL (≈ 0.407 µM) | 0.25 µg/mL (≈ 0.203 µM) | 1 µg/mL (≈ 0.813 µM) | 1 µg/mL (≈ 0.813 µM) | 0.25 µg/mL (≈ 0.203 µM) | 0.082 µg/mL (≈ 0.0667 µM) | 0.127 µg/mL (≈ 0.103 µM) | 0.173 µg/mL (≈ 0.141 µM) | 1 µg/mL (≈ 0.813 µM) | 0.5 µg/mL (≈ 0.407 µM) | 
4 | C/C=C1\NC(=O)[C@H]([C@@H](C)O)NC(=O)c2csc(n2)-c2ccc(-c3nc(-c4nc(C(=O)NC5(C(=O)NCCN6CCN(C(C)C)CC6)CC5)cs4)cs3)nc2-c2csc(n2)[C@H]([C@@H](C)O)NC(=O)c2csc(n2)[C@H](C(C)C)NC(=O)c2csc1n2 [Compound 35] |  |  | 0.5 µg/mL (≈ 0.403 µM) |  | 0.25 µg/mL (≈ 0.202 µM) | 0.5 µg/mL (≈ 0.403 µM) |  | 1 µg/mL (≈ 0.806 µM) |  |  |  |  |  | 0.109 µg/mL (≈ 0.0879 µM) | 0.139 µg/mL (≈ 0.112 µM) | 0.123 µg/mL (≈ 0.0991 µM) | 0.5 µg/mL (≈ 0.403 µM) | 1 µg/mL (≈ 0.806 µM) | 
